As a reminder, the solubility is the concentration that dissolves in the medium under given conditions. A higher solubility goes with a readily soluble substance. A word on the Cmax: it is the peak of the concentration-time curve. The Tmax is the time from dosing to the highest level.

Values after ≈ are worked out from the molar mass of the structure shown. Where a name gives a salt, the structure may show the parent alone. Read-outs that look alike come from different tables or passages of the source.

In one series the test system is mouse spleen cell. Kind of series: cells. To be noted: Mus musculus, 24 h, read-out: Interferon-inducing activity: Minimum effective concentration. Format: cell-based.
A further series relates to IL-4 production. Kind of series: Inhibitory activity against Th2 cytokine produced from sensitized spleen cells: IL-4. The format is cell-based, mouse. To be noted: Mus musculus, 72 h, OVA-sensitized BALB/c spleen cells, 3 days; for activity at 0.0001 µM: concentration 0.1 nM; for activity at 0.001 µM: concentration 1 nM; for activity at 0.001 µM / activity at 0.01 µM / activity at 0.1 µM: read-out: Inhibitory activity against IL-4 production; for activity at 0.01 µM: concentration 10 nM; for activity at 0.1 µM: concentration 100 nM. The procedure:
(§1) A 7-week-old BALB/c mouse was immunized intraperitoneally with aluminum hydroxide gel (4 mg, 100 μl) having 10 μg of ovalbumin adsorbed thereon, and it was subjected to additional immunization with the same agent 14 days later. Seven days thereafter, spleen was taken out, and suspended in RPMI-1640 comprising inactivated fetal bovine serum (10%), 2-mercaptoethanol ([…]), penicillin G (100 U/ml), and streptomycin (100 μg/ml). Thus, a splenic cell suspension was prepared. Ovalbumin (0.5 mg/ml) and a test compound were added to a splenic cell suspension (5×10^6 cell/200 μl/well), and the resultant was cultured at 37° C. in the presence of 5% CO2 for 3 days. The cytokine level in the culture supernatant was quantified by ELISA. IFN-γ and IL-4 were assayed using a kit available from Amersham, and IL-5 was assayed using a kit available from Endogen.

The test system of a further series is Balb/c male mouse. Kind of series: Interferon-inducing activity in mouse (in vivo), serum interferon titer after oral dosing.
Another series relates to IL-5 production. Kind of series: Inhibitory activity against Th2 cytokine produced from sensitized spleen cells: IL-5. The format is cell-based, mouse. To be noted: Mus musculus, 72 h, OVA-sensitized BALB/c spleen cells, 3 days; for activity at 0.0001 µM: concentration 0.1 nM; for activity at 0.001 µM: concentration 1 nM; for activity at 0.001 µM / activity at 0.01 µM / activity at 0.1 µM: read-out: Inhibitory activity against IL-5 production; for activity at 0.01 µM: concentration 10 nM; for activity at 0.1 µM: concentration 100 nM. The procedure:
as §1

Series [1] can be described thus: Solubility in citric acid/disodium phosphate buffers. To be noted: citric acid/disodium phosphate buffer, thermodynamic from solid.
Protocol: 5.53% citric acid (monohydrate) and 1.75% disodium phosphate (anhydrous) were mixed together to prepare buffers (pH 2.5, 5.5, 7.4). A compound was added thereto, the mixture was stirred in a vortex mixer and subjected to ultrasonication for 30 minutes. Thereafter, the resultant was stirred in a vortex mixer again and then centrifuged at 15,000 rpm for 20 minutes. The levels of the compounds in the supernatants were then quantified by HPLC.
Series [2] relates to human peripheral blood mononuclear cells (PBMC). Kind of series: Interferon-inducing activity in human peripheral blood mononuclear cells (PBMC), IFN-α ELISA.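 Also: IFN-α in pg/ml with a 1.25 pg/ml detection limit.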 Format: cell-based. To be noted: 24 h. Here is the method: Peripheral bloods were sampled from 5 healthy volunteers using a syringe containing heparin, and peripheral blood mononuclear cells (PBMC) were prepared by density gradient centrifugation utilizing the Lymphoprep™ (NYCOMED PHARMA AS). PBMCs were washed twice in serum-free RPMI 1640 medium and adjusted at 1×10^6 cells/ml in RPMI 1640 medium comprising 10% fetal bovine serum. The product was cultured in the presence of a test compound dissolved in dimethyl sulfoxide (final concentration: 0.1%) in an incubator in the presence of 5% CO^2 at 37° C. for 24 hours. As a control, 0.1% dimethyl sulfoxide containing no test compound was used. The culture supernatant was aseptically collected by filtration. Thereafter, the supernatant was cryopreserved at −20° C. or lower until it was subjected to the assay for IFN-inducing activity. Human IFN-α in the culture supernatant was quantified using a highly sensitive ELISA system (Amersham).
On the technique in general: An ELISA detects its analyte on a solid surface through an enzyme-linked reagent.

A short description of series [3]: Gastrointestinal absorption in rat (drug level in blood by HPLC). The format is in vivo. To be noted: blood, SD male rat; for Cmax: read-out: Cmax; for Tmax: read-out: Tmax. Here is the method: A test compound was suspended in an aqueous solution of 0.5% carboxymethylcellulose, and the resulting suspension was orally administered to an SD male rat. Blood was sampled with the elapse of time, and the level of the drug in blood was assayed by HPLC.

[4] abbreviates: dosage 0.03 mg/kg oral, serum 2 h after dosing, Balb/c mouse.
Setting [5] is: dosage 0.1 mg/kg oral, serum 2 h after dosing, Balb/c mouse.
Where [6] appears, read: dosage 0.3 mg/kg oral, serum 2 h after dosing, Balb/c mouse.

For `CCCCOc1nc(N)c2nc(O)n(Cc3ccc(Cl)nc3)c2n1` [Example 1, 2-Butoxy-9-(6-chloro-3-pyridylmethyl)-8-hydroxyadenine], the minimal effective concentration in the series on mouse spleen cell was 0.001 µM. In addition, in the series with IL-4 production, the activity at 0.0001 µM is 98%, the activity at 0.001 µM was determined as 7%, the activity at 0.01 µM turned out to be 2% and the activity at 0.1 µM is below 1%. Further, the Interferon-inducing activity with Balb/c male mouse (setting [4]) turned out to be 123 ± 87 U/ml. This compound also returned an Interferon-inducing activity with Balb/c male mouse (setting [5]) of 322 ± 95 U/ml. The same compound displayed an Interferon-inducing activity in the series on Balb/c male mouse (setting [6]) of 623 ± 32 U/ml. Besides, in the series with IL-5 production, the activity at 0.0001 µM is 116%, the activity at 0.001 µM worked out at 41%, the activity at 0.01 µM worked out at 16% and the activity at 0.1 µM amounted to 15%.
Turning to `CCCCOc1nc(N)c2nc(O)n(Cc3ccc(OC)nc3)c2n1` [Example 2, 2-Butoxy-8-hydroxy-9-(6-methoxy-3-pyridylmethyl)adenine], in the series on mouse spleen cell, the minimal effective concentration was determined as 0.001 µM. In addition, the activity at 0.0001 µM with IL-4 production came out at 96%; in the series on IL-5 production it was 98%. The activity at 0.001 µM came out at 4% in the series with IL-4 production and 37% in the series on IL-5 production. Also, the activity at 0.01 µM in the series with IL-4 production was below 1%; in the series with IL-5 production, 14%. For the same compound, the activity at 0.1 µM with IL-4 production is below 1%; in the series on IL-5 production it was 12%. The Interferon-inducing activity in the series with Balb/c male mouse (po, 0.01 mg/kg, 2 h) is 25 ± 17 U/ml; with Balb/c male mouse (po, 0.03 mg/kg, 2 h), 388 ± 87 U/ml; in the series with Balb/c male mouse (po, 0.1 mg/kg, 2 h), 1211 ± 263 U/ml; in the series on Balb/c male mouse (po, 0.3 mg/kg, 2 h), 2559 ± 495 U/ml.
Regarding `CCCCNc1nc(N)c2nc(O)n(Cc3ccccn3)c2n1` [Example 20, 2-Butylamino-8-hydroxy-9-(2-pyridylmethyl)adenine], in the series with mouse spleen cell, the minimal effective concentration came to 0.03 µM. Further, in the series with IL-4 production, the activity at 0.001 µM is 106%, the activity at 0.01 µM turned out to be 23% and the activity at 0.1 µM came out at 2%. This compound yielded a solubility at 30 min in series [1] (pH 2.5, aqueous buffer) of 8810 µg/mL (≈ 28100 µM). In addition, in the series on IL-5 production, the activity at 0.001 µM is 106%, the activity at 0.01 µM was determined as 71% and the activity at 0.1 µM is 19%.
Regarding `CCCCNc1nc(N)c2nc(O)n(Cc3cccnc3)c2n1` [Example 21, 2-Butylamino-8-hydroxy-9-(3-pyridylmethyl)adenine], the minimal effective concentration in the series on mouse spleen cell worked out at 0.003 µM. In addition, the figures for the activity at 0.001 µM in the series with IL-4 production and in the series with IL-5 production were 53% and 97%, respectively. In addition, the activity at 0.01 µM in the series on IL-4 production is 1%; in the series on IL-5 production, 23%. Besides, the results for the activity at 0.1 µM with IL-4 production and with IL-5 production were below 1% and 15%, respectively. In addition, the solubility at 30 min in series [1] (pH 2.5, aqueous buffer) is 15000 µg/mL (≈ 47900 µM); in series [1] (pH 5.5, aqueous buffer), 45 µg/mL (≈ 144 µM); in series [1] (pH 7.4, aqueous buffer) it was 64 µg/mL (≈ 204 µM). For the same compound, the Interferon-inducing activity with Balb/c male mouse (po, 0.03 mg/kg, 2 h) is 15 ± 8 U/ml; in the series with Balb/c male mouse (po, 0.1 mg/kg, 2 h), 290 ± 134 U/ml; in the series with Balb/c male mouse (po, 0.3 mg/kg, 2 h) it was 571 ± 164 U/ml.
Regarding `CCCCNc1nc(N)c2nc(O)n(Cc3ccncc3)c2n1` [Example 22, 2-Butylamino-8-hydroxy-9-(4-pyridylmethyl)adenine], the minimal effective concentration with mouse spleen cell is 0.01 µM. Also, the figures for the activity at 0.001 µM with IL-4 production and in the series on IL-5 production were 88% and 115%, respectively. Also, the results for the activity at 0.01 µM with IL-4 production and with IL-5 production were 9% and 50%, respectively. The activity at 0.1 µM in the series with IL-4 production is 1%; with IL-5 production it was 18%. Besides, the solubility at 30 min in series [1] (pH 2.5, aqueous buffer) is above 80000 µg/mL; in series [1] (pH 5.5, aqueous buffer), 73 µg/mL (≈ 233 µM); in series [1] (pH 7.4, aqueous buffer) it was 16 µg/mL (≈ 51.1 µM). For the same compound, the Interferon-inducing activity with Balb/c male mouse (po, 0.1 mg/kg, 2 h) was 21 ± 9 U/ml; with Balb/c male mouse (po, 0.3 mg/kg, 2 h), 332 ± 83 U/ml.
Take `CCCCOc1nc(N)c2nc(O)n(Cc3ccc(C)nc3)c2n1` [Example 25, 2-Butoxy-8-hydroxy-9-(6-methyl-3-pyridylmethyl)adenine]: the minimal effective concentration in the series with mouse spleen cell amounted to 0.001 µM. For the same compound, the values for the activity at 0.0001 µM with IL-4 production and in the series on IL-5 production were 86% and 102%, respectively. Also, the activity at 0.001 µM in the series with IL-4 production came out at 2%; with IL-5 production, 31%. Also, the values for the activity at 0.01 µM in the series on IL-4 production and with IL-5 production were below 1% and 13%, respectively. For the same compound, the activity at 0.1 µM in the series on IL-4 production was below 1%; in the series with IL-5 production it was 13%. Also, the solubility at 30 min in series [1] (pH 2.5, aqueous buffer) is above 1000 µg/mL; in series [1] (pH 5.5, aqueous buffer), 5 µg/mL (≈ 15.2 µM); in series [1] (pH 7.4, aqueous buffer), 3 µg/mL (≈ 9.14 µM). The “Interferon-inducing activity (human IFN-α in culture supernatant)” value is 7 ± 3 pg/mL in series [2] (concentration 0.3 nM), 28 ± 24 pg/mL in series [2] (concentration 1 nM) and 46 ± 34 pg/mL in series [2] (concentration 3 nM). The Interferon-inducing activity in the series with Balb/c male mouse (dosage 0.01 mg/kg oral, serum 2 h after dosing, Balb/c mouse) worked out at 65 ± 52 U/ml; in the series on Balb/c male mouse (setting [4]), 151 ± 29 U/ml; in the series with Balb/c male mouse (setting [5]), 753 ± 140 U/ml; in the series on Balb/c male mouse (setting [6]), 721 ± 299 U/ml.
`CCCCOc1nc(N)c2nc(O)n(Cc3ccc(C)nc3)c2n1` [Hydrochloride of Example 25, 2-Butoxy-8-hydroxy-9-(6-methyl-3-pyridylmethyl)adenine]: in series [3] (dose 3 mg/kg oral), the Cmax stood at 18 ng/mL and the Tmax was 60 min. Also, in series [3] (dose 10 mg/kg oral), the Cmax was found to be 150 ng/mL and the Tmax was 15 min.
Consider `CCCCNc1nc(N)c2nc(O)n(Cc3ccccc3)c2n1` [Reference Compound 1, 9-Benzyl-2-butylamino-8-hydroxyadenine, reference compound], for which the minimal effective concentration with mouse spleen cell turned out to be 0.1 µM. Also, the values for the activity at 0.01 µM in the series on IL-4 production and in the series with IL-5 production were 109% and 92%, respectively. Besides, the activity at 0.1 µM in the series with IL-4 production is 24%; in the series on IL-5 production, 69%. The solubility at 30 min was 26 µg/mL (≈ 83.2 µM) in series [1] (pH 2.5, aqueous buffer); below 1 µg/mL in series [1] (pH 5.5, aqueous buffer); below 1 µg/mL in series [1] (pH 7.4, aqueous buffer). For the same compound, the Interferon-inducing activity amounted to 55 ± 25 U/ml with Balb/c male mouse (po, 0.1 mg/kg, 2 h) and 275 ± 165 U/ml in the series on Balb/c male mouse (po, 0.3 mg/kg, 2 h).
With `CCCCOc1nc(N)c2nc(O)n(Cc3ccccc3)c2n1` [Reference Compound 2, 9-benzyl-2-butoxy-8-hydroxyadenine, reference compound], the minimal effective concentration with mouse spleen cell stood at 0.001 µM. Also, the activity at 0.0001 µM in the series on IL-4 production turned out to be 107%; in the series on IL-5 production, 99%. Also, the activity at 0.001 µM with IL-4 production was 48%; with IL-5 production, 79%. The figures for the activity at 0.01 µM in the series on IL-4 production and with IL-5 production were 1% and 16%, respectively. Also, the activity at 0.1 µM with IL-4 production was below 1%; in the series with IL-5 production, 11%. For the same compound, the solubility at 30 min is 2 µg/mL (≈ 6.38 µM) in series [1] (pH 2.5, aqueous buffer); below 1 µg/mL in series [1] (pH 5.5, aqueous buffer); below 1 µg/mL in series [1] (pH 7.4, aqueous buffer). The “Interferon-inducing activity (human IFN-α in culture supernatant)” value in series [2] (concentration 1 nM) is “— ((−) indicates a detection limit (1.25 pg/ml) or lower)”; in series [2] (concentration 3 nM), 7 pg/mL; in series [2] (concentration 10 nM) it was 23 ± 22 pg/mL; in series [2] (concentration 30 nM) it was 64 ± 40 pg/mL. Moreover, the Interferon-inducing activity stood at 60 ± 40 U/ml in the series with Balb/c male mouse (po, 0.03 mg/kg, 2 h); 186 ± 42 U/ml in the series with Balb/c male mouse (po, 0.1 mg/kg, 2 h); 317 ± 160 U/ml in the series on Balb/c male mouse (po, 0.3 mg/kg, 2 h).

(Values after patent US7521454B2 (Dainippon Sumitomo Pharma Co., Ltd., priority 2001, dated 2009).)
